Assay results reported in ChEMBL document CHEMBL1201862, “PubChem BioAssay data set” (2004).
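Compound exposure: 48 hours, 5 concentrations, 96-well plates. GI50: concentration for 50% inhibition of growth.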 The source made the active and inactive calls. No stated cut-off is given here; in the data, active = GI50 up to about 1.1 µM and inactive = higher.

Tests used:
Assay in all cases: NCI tumour cell line growth inhibition, 48 h
[1] = tested on: 786-0
[2] = tested on: A498
[3] = tested on: A549
[4] = tested on: ACHN
[5] = tested on: CAKI-1
[6] = tested on: CCRF-CEM
[7] = tested on: COLO 205
[8] = tested on: DLD-1
[9] = tested on: DMS-114
[10] = tested on: DMS-273
[11] = tested on: EKVX
[12] = tested on: HCC 2998
[13] = tested on: HCT-116
[14] = tested on: HCT-15
[15] = tested on: HL-60
[16] = tested on: HOP-18
[17] = tested on: HOP-62
[18] = tested on: HOP-92
[19] = tested on: HT-29
[20] = tested on: IGROV-1
[21] = tested on: K562
[22] = tested on: KM-20L2
[23] = tested on: KM12
[24] = tested on: LOX IMVI
[25] = tested on: LXFL 529
[26] = tested on: M14
[27] = tested on: M19-MEL
[28] = tested on: MOLT-4
[29] = tested on: Malme-3M
[30] = tested on: NCI-H226
[31] = tested on: NCI-H23
[32] = tested on: NCI-H460
[33] = tested on: NCI-H522
[34] = tested on: OVCAR-3
[35] = tested on: OVCAR-4
[36] = tested on: OVCAR-5
[37] = tested on: OVCAR-8
[38] = tested on: RPMI-8226
[39] = tested on: RXF 393
[40] = tested on: SF-268
[41] = tested on: SF-295
[42] = tested on: SF-539
[43] = tested on: SK-MEL-28
[44] = tested on: SK-MEL-2
[45] = tested on: SK-MEL-5
[46] = tested on: SK-OV-3
[47] = tested on: SN12C
[48] = tested on: SNB-19
[49] = tested on: SNB-75
[50] = tested on: SNB-78
[51] = tested on: SW-620
[52] = tested on: TK-10
[53] = tested on: U-251
[54] = tested on: UACC-257
[55] = tested on: UACC-62
[56] = tested on: UO-31
[57] = tested on: XF498
[58] = tested on: SR

Compound: CC(=O)Nc1ccc(C2C(C(=O)Nc3ccccc3)=C(C)NC(C)=C2C(=O)Nc2ccccc2)cc1
- GI50 [1]: > 100 µM (inactive)
- GI50 [2]: > 100 µM (inactive)
- GI50 [3]: > 100 µM (inactive)
- GI50 [4]: > 100 µM (inactive)
- GI50 [5]: > 100 µM (inactive)
- GI50 [6]: 35.2 µM (inactive)
- GI50 [7]: > 100 µM (inactive)
- GI50 [8]: 97.5 µM (inactive)
- GI50 [9]: 35.7 µM (inactive)
- GI50 [10]: > 100 µM (inactive)
- GI50 [11]: > 100 µM (inactive)
- GI50 [12]: > 100 µM (inactive)
- GI50 [13]: > 91 µM (inactive)
- GI50 [14]: > 64.1 µM
- GI50 [15]: 39.8 µM (inactive)
- GI50 [16]: > 100 µM (inactive)
- GI50 [17]: > 100 µM (inactive)
- GI50 [18]: > 100 µM (inactive)
- GI50 [19]: > 100 µM (inactive)
- GI50 [20]: > 100 µM (inactive)
- GI50 [21]: > 100 µM (inactive)
- GI50 [22]: > 100 µM (inactive)
- GI50 [23]: > 100 µM (inactive)
- GI50 [24]: > 79.6 µM (inactive)
- GI50 [25]: > 64.9 µM (inactive)
- GI50 [26]: > 100 µM (inactive)
- GI50 [27]: > 100 µM (inactive)
- GI50 [28]: > 100 µM (inactive)
- GI50 [29]: > 100 µM (inactive)
- GI50 [30]: > 100 µM (inactive)
- GI50 [31]: > 100 µM (inactive)
- GI50 [32]: > 100 µM (inactive)
- GI50 [33]: 64 µM (inactive)
- GI50 [34]: > 100 µM (inactive)
- GI50 [35]: > 100 µM (inactive)
- GI50 [36]: > 100 µM (inactive)
- GI50 [37]: > 100 µM (inactive)
- GI50 [38]: > 100 µM (inactive)
- GI50 [39]: > 100 µM (inactive)
- GI50 [40]: > 100 µM (inactive)
- GI50 [41]: > 100 µM (inactive)
- GI50 [42]: > 100 µM (inactive)
- GI50 [43]: > 100 µM (inactive)
- GI50 [44]: > 100 µM (inactive)
- GI50 [45]: > 100 µM (inactive)
- GI50 [46]: > 100 µM (inactive)
- GI50 [47]: > 100 µM (inactive)
- GI50 [48]: > 100 µM (inactive)
- GI50 [49]: > 100 µM (inactive)
- GI50 [50]: > 100 µM (inactive)
- GI50 [51]: 98.4 µM (inactive)
- GI50 [52]: > 100 µM (inactive)
- GI50 [53]: > 100 µM (inactive)
- GI50 [54]: > 100 µM (inactive)
- GI50 [55]: > 80.5 µM (inactive)
- GI50 [56]: > 100 µM (inactive)
- GI50 [57]: > 100 µM (inactive)

Compound: C[n+]1c2ccccc2c(NC(CCCNC(=N)N)C(=O)O)c2ccccc21 (configuration not stated)
- GI50 [1]: > 100 µM (inactive)
- GI50 [2]: > 100 µM (inactive)
- GI50 [3]: > 100 µM (inactive)
- GI50 [4]: > 100 µM (inactive)
- GI50 [5]: > 100 µM (inactive)
- GI50 [7]: > 100 µM (inactive)
- GI50 [8]: > 100 µM (inactive)
- GI50 [9]: > 100 µM (inactive)
- GI50 [10]: > 100 µM (inactive)
- GI50 [11]: > 100 µM (inactive)
- GI50 [12]: > 100 µM (inactive)
- GI50 [13]: > 100 µM (inactive)
- GI50 [14]: > 100 µM
- GI50 [15]: 39.1 µM (inactive)
- GI50 [16]: > 100 µM (inactive)
- GI50 [17]: > 100 µM (inactive)
- GI50 [18]: > 100 µM (inactive)
- GI50 [19]: > 100 µM (inactive)
- GI50 [20]: > 100 µM (inactive)
- GI50 [21]: > 100 µM (inactive)
- GI50 [22]: > 100 µM (inactive)
- GI50 [23]: > 100 µM (inactive)
- GI50 [25]: > 100 µM (inactive)
- GI50 [26]: > 100 µM (inactive)
- GI50 [27]: > 100 µM (inactive)
- GI50 [28]: > 100 µM (inactive)
- GI50 [29]: > 100 µM (inactive)
- GI50 [30]: > 100 µM (inactive)
- GI50 [31]: > 100 µM (inactive)
- GI50 [32]: > 100 µM (inactive)
- GI50 [33]: 99.1 µM (inactive)
- GI50 [34]: > 100 µM (inactive)
- GI50 [35]: > 100 µM (inactive)
- GI50 [36]: > 100 µM (inactive)
- GI50 [37]: > 100 µM (inactive)
- GI50 [38]: 7.55 µM (inactive)
- GI50 [39]: > 100 µM (inactive)
- GI50 [40]: > 100 µM (inactive)
- GI50 [41]: > 100 µM (inactive)
- GI50 [42]: > 100 µM (inactive)
- GI50 [44]: > 100 µM (inactive)
- GI50 [45]: 85.9 µM (inactive)
- GI50 [46]: > 100 µM (inactive)
- GI50 [47]: > 100 µM (inactive)
- GI50 [48]: > 100 µM (inactive)
- GI50 [49]: > 100 µM (inactive)
- GI50 [50]: > 100 µM (inactive)
- GI50 [58]: > 100 µM (inactive)
- GI50 [51]: > 100 µM (inactive)
- GI50 [52]: > 100 µM (inactive)
- GI50 [53]: > 100 µM (inactive)
- GI50 [54]: > 100 µM (inactive)
- GI50 [55]: > 100 µM (inactive)
- GI50 [56]: 75.2 µM (inactive)
- GI50 [57]: > 100 µM (inactive)
